# Test results published in the NIST ThermoML archive (doi:10.1016/j.jct.2006.03.014).
# ± gives the expanded uncertainty stated by the source.
# Experiments:
# [1] = 101 kPa, Liquid; for viscosity: Capillary tube (Ostwald / Ubbelohde) method; for mass density: Pycnometric method
# [2] = refractive index (Na D-line) (dimensionless); details: 298.15 K; 101.33 kPa; Liquid; Standard Abbe refractometry
# [3] = xn = mol fraction of the nth substance listed; details: 101 kPa, Liquid, x2 = 0; for viscosity: Capillary tube (Ostwald / Ubbelohde) method; for mass density: Pycnometric method
structure (smiles),measurement,setting,value
"CC1OC(C)OC(C)O1 (stereo not given) [2,4,6-trimethyl-1,3,5-trioxane]",viscosity,[1]; 298.15 K,1.107 ± 0.015 mPa·s
same,mass density,[1]; 298.15 K,988.4 ± 1.3 kg/m3
same,viscosity,[1]; 303.15 K,1.001 ± 0.014 mPa·s
same,mass density,[1]; 303.15 K,982.6 ± 1.3 kg/m3
same,viscosity,[1]; 308.15 K,0.907 ± 0.013 mPa·s
same,mass density,[1]; 308.15 K,976.4 ± 1.4 kg/m3
CCCCOC(C)=O [butyl ethanoate],refractive index,[2],1.3918 ± 0.0009
same,viscosity,[1]; 298.15 K,0.685 ± 0.01 mPa·s
same,mass density,[1]; 298.15 K,876.4 ± 1.1 kg/m3
same,viscosity,[1]; 303.15 K,0.636 ± 0.01 mPa·s
same,mass density,[1]; 303.15 K,871.3 ± 1.1 kg/m3
same,viscosity,[1]; 308.15 K,0.579 ± 0.009 mPa·s
same,mass density,[1]; 308.15 K,866.2 ± 1.1 kg/m3
CCCCOC(C)=O [butyl ethanoate] + CC1OC(C)OC(C)O1,viscosity,[3]; 298.15 K,0.685 ± 0.01 mPa·s
same,mass density,[3]; 298.15 K,876.4 ± 1.1 kg/m3
same,viscosity,[3]; 303.15 K,0.636 ± 0.01 mPa·s
same,mass density,[3]; 303.15 K,871.3 ± 1.1 kg/m3
same,viscosity,[3]; 308.15 K,0.579 ± 0.009 mPa·s
same,mass density,[3]; 308.15 K,866.2 ± 1.1 kg/m3
CCOC(C)=O [ethyl acetate],refractive index,[2],1.37 ± 0.0009
same,viscosity,[1]; 298.15 K,0.43 ± 0.008 mPa·s
same,mass density,[1]; 298.15 K,893.8 ± 1.2 kg/m3
same,viscosity,[1]; 303.15 K,0.401 ± 0.008 mPa·s
same,mass density,[1]; 303.15 K,887.6 ± 1.2 kg/m3
same,viscosity,[1]; 308.15 K,0.387 ± 0.008 mPa·s
same,mass density,[1]; 308.15 K,881.2 ± 1.2 kg/m3
CCOC(C)=O [ethyl acetate] + CC1OC(C)OC(C)O1,viscosity,[3]; 298.15 K,0.43 ± 0.008 mPa·s
same,mass density,[3]; 298.15 K,893.8 ± 1.2 kg/m3
same,viscosity,[3]; 303.15 K,0.401 ± 0.008 mPa·s
same,mass density,[3]; 303.15 K,887.6 ± 1.2 kg/m3
same,viscosity,[3]; 308.15 K,0.387 ± 0.008 mPa·s
same,mass density,[3]; 308.15 K,881.2 ± 1.2 kg/m3
COC(C)=O [methyl ethanoate],refractive index,[2],1.3585 ± 0.0009
same,viscosity,[1]; 298.15 K,0.367 ± 0.008 mPa·s
same,mass density,[1]; 298.15 K,926.7 ± 1.3 kg/m3
same,viscosity,[1]; 303.15 K,0.351 ± 0.007 mPa·s
same,mass density,[1]; 303.15 K,919.7 ± 1.2 kg/m3
same,viscosity,[1]; 308.15 K,0.338 ± 0.007 mPa·s
same,mass density,[1]; 308.15 K,916.2 ± 1 kg/m3
COC(C)=O [methyl ethanoate] + CC1OC(C)OC(C)O1,viscosity,[3]; 298.15 K,0.367 ± 0.008 mPa·s
same,mass density,[3]; 298.15 K,926.7 ± 1.3 kg/m3
same,viscosity,[3]; 303.15 K,0.351 ± 0.007 mPa·s
same,mass density,[3]; 303.15 K,919.7 ± 1.2 kg/m3
same,viscosity,[3]; 308.15 K,0.338 ± 0.007 mPa·s
same,mass density,[3]; 308.15 K,916.2 ± 1 kg/m3
